Reference: the supplement of paper PMC8837787

Test system: Saccharomyces cerevisiae ABC16-Green Monster
Test: growth inhibition at single dose (up to 150 µM), below the 70% cut-off for dose-response; higher = more potent
Settings: 18 h; 30 °C; YPD
Outline: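 Percent growth inhibition is the reported value. Drug-sensitive S. cerevisiae ABC16-Green Monster cultures in log phase (OD600 0.1–0.2), 200 µl per well in 96-well plates, received each library compound once at 150 µM in biological duplicates, with untreated cultures run alongside. Growth was followed by OD600 at 0 h and after 18 h at 30 °C. Dose-response was not done for compounds below 70% in both replicates.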

SMILES	growth inhibition at single dose
O=C(c1cnc2cc3c(cc2c1)OCCO3)c1cc(F)ccc1O	< 70%
CNC(=O)c1nn(C)c2c1C(C)(C)Cc1cnc(Nc3ccc(N4CCN(C)CC4)cc3)nc1-2	< 70%
Cc1ccc(-c2csc(Nc3ccccn3)n2)c(C)c1	< 70%
O=C(NC1CC1)c1ccc(N2CCC(Cc3ccccc3)CC2)nc1	< 70%
O=C(c1cnn(C(=O)c2nn(-c3ccc(Cl)cc3)cc2O)c1)c1ccccc1O	< 70%
COc1ccc(-c2cc(=O)oc3c4c(ccc23)OCN(Cc2ccc(F)cc2)C4)cc1	< 70%
O=C(CN1C(=O)CCOc2ccccc21)N1CCN(C(=O)C2COc3ccccc3O2)CC1 (stereo not given)	< 70%
CCCC(c1nnnn1C1CCCCC1)N1CCN(C(=O)c2ccco2)CC1 (stereo not given)	< 70%
COc1cc(CNC(=O)c2scnc2C)ccc1OC1CCCC1	< 70%
CC(NC(=O)c1cccc(Nc2ncccn2)c1)c1cccc(C(F)(F)F)c1 (stereo not given)	< 70%
Nc1ccc(-c2nc3cc(Cc4ccc5[nH]c(-c6ccc(N)cc6)nc5c4)ccc3[nH]2)cc1	< 70%
COc1ccccc1CNC(=O)CCn1c(=O)[nH]c2ccsc2c1=O	< 70%
CCn1c(O)c(C2NCCc3c2[nH]c2ccc(OC)cc32)c(=O)[nH]c1=O (stereo not given)	< 70%
CCOc1cc2c(cc1OCC)C(c1cc(C)c(O)c(C)c1)NCC2 (stereo not given)	< 70%
Cc1cc(C)n2nc(C(=O)Nc3cc(C(F)(F)F)ccc3N3CCOCC3)nc2n1	< 70%
COCCNC(=O)c1nn(CCC(C)C)c2c1CN(C(=O)c1cc(C)n[nH]1)CC2	< 70%
Nc1nnc(SCc2c(F)cccc2Cl)[nH]1	< 70%
COc1ccc(-n2nc(C)c3c2NC(=O)CC3c2ccc3c(c2)OCO3)cc1 (stereo not given)	< 70%
CC(C)=CCN1CCC(C(=O)Nc2ccc(-c3nc4ccccc4[nH]3)cc2)CC1	< 70%
Cc1cccc(NC(=O)CN2C(=O)/C(=C(/C#N)c3nc4ccccc4[nH]3)c3ccccc32)c1	< 70%
COc1ccc(CN2CCN(Cc3ccccc3)CC2)c(O)c1	< 70%
O=c1cc(NC2CCN(CCCc3ccccc3)CC2)c2cc(Cl)ccc2o1	< 70%
COc1ccc(C2N(C)c3ccccc3N2C)cc1	< 70%

SMILES	growth inhibition at single dose
OC(c1cn2cc(-c3ccc(F)cc3)nc2s1)(C(F)(F)F)C(F)(F)F	< 70%
Brc1c(-c2ccc3c(c2)OCO3)nc2ncccn12	< 70%
CCc1ccc(-n2nnnc2-c2cnc(N)nc2-c2ccccc2)cc1	< 70%
CCOc1c(Cl)cc(CNC(C)C(O)c2ccccc2)cc1OC (stereo not given)	< 70%
O=C(Nc1cccc(-c2ccc(NCCCN3CCCC3)nc2)c1)c1ccccc1	< 70%
CCOC(=O)c1[nH]c(C)c(C(=O)OCC(=O)Nc2ccc(Cl)cn2)c1C	< 70%
CCOC(=O)c1ccc2nc(-c3ccccc3)cc(O)c2c1	< 70%
O=C(NCCN1CCCC1)c1cc(NCCCCN2CCC(F)(F)CC2)nc2ccc(Cl)cc12	< 70%
Cc1cc2ccccc2n1CC(=O)N1CC(C(=O)N2CCCCC2)Oc2ccccc21 (stereo not given)	< 70%
O=C(CSc1ccc2nnc(-c3cccc(F)c3)n2n1)Nc1ccc2c(c1)OCO2	< 70%
CC(=O)NC(C)CCc1ccc(C(=O)Cn2ncc(Cl)c(Cl)c2=O)cc1 (stereo not given)	< 70%
Cc1nc(-c2ccc(CCNc3ncnc4sccc34)cc2)cs1	< 70%
CC(C)(C)c1cc(NC(=O)COc2ccc3[nH]c4ccccc4c(=O)c3c2)n(-c2ccccc2)n1	< 70%
N=C(N)N/N=C/c1ccc(Cl)cc1Cl	< 70%
CCOc1cc(Br)c(C(C)NC(=O)c2cccc(OC)c2)cc1OCC (stereo not given)	< 70%
Oc1c(CN2CCN(c3ccccc3F)CC2)cc(Br)c2cccnc12	< 70%
CN1CCN(S(=O)(=O)c2ccc(-c3ccc4c(Nc5ccc6nn[nH]c6c5)ccnc4c3)cc2)CC1	< 70%
O=C1[C@@H](Oc2ccccc2)[C@@H](c2ccc(Cl)cc2)N1CCn1cnc2c(NCc3ccccc3)ncnc21	< 70%
S=c1n(CN2CCN(c3ccccc3Cl)CC2)nc(-c2cccs2)n1Cc1ccccc1	< 70%
CCCCc1ccc(NS(=O)(=O)c2cc3c4c(c2)CCN4C(=O)CC3)cc1	< 70%
CCS(=O)(=O)c1ncc(Cl)c(C(=O)Nc2ccccc2C(F)(F)F)n1	< 70%
CC(C)(C)OC(=O)N1CCC(Cn2nc(-c3cnc4ccccc4c3)c3c(N)ncnc32)CC1	< 70%
CCc1nn(C)c(C(=O)NCc2ccc(Oc3ccc(C)cc3)cc2)c1Cl	< 70%

SMILES	growth inhibition at single dose
COc1ccc(S(=O)(=O)N(Cc2cccs2)c2ccc3c(c2)OCCO3)cc1NC(C)=O	< 70%
O=C(Nc1ccc(N2CCCC2)cn1)C1CC=CCC1 (stereo not given)	< 70%
CN(c1ccccc1)S(=O)(=O)c1ccc(NC(=O)c2cccs2)cc1	< 70%
Cc1ccc(N2C(=O)C3C(C2=O)C2(c4ccccc4)C(=O)C3(c3ccccc3)C(c3ccccc3)=C2c2ccccc2)cc1 (stereo not given)	< 70%
C=CCN(C(=O)c1[nH]c(C)c(C(C)=O)c1C)c1nc2c(s1)CCCC2	< 70%
CC1CC1C(=O)NC1CCN(CC2(c3ccccc3)CCCCC2)CC1 (stereo not given)	< 70%
Cn1c(=O)c2c(S(C)(=O)=O)snc2n(C)c1=O	< 70%
CC(C)(C)c1ccc(NC(=O)c2cnccn2)cc1	< 70%
CC(C)c1ccc2c(c1)/C(=N/NC(=O)c1ccccc1F)C(=O)N2	< 70%
C=C(C)CCC(C)N1CCC(N2CCC(C(=O)NCCc3ccccc3)CC2)CC1 (stereo not given)	< 70%
O=C(Nc1cccnc1)c1c(O)c2cccc3c2n(c1=O)CC3	< 70%
CC(C)N=c1cc2n(-c3ccc(Cl)cc3)c3ccccc3nc-2cc1Nc1ccc(Cl)cc1	< 70%
O=S(=O)(NC1CCN(c2nn3cc(-c4ccccc4)nc3s2)CC1)c1cccs1	< 70%
O=C(NCCN1CCCC1)c1cc(NCCN2CCOCC2)nc2ccc(Cl)cc12	< 70%
Cc1cccc(Cn2ccc(NC(=O)c3ccc4c(c3)OCO4)n2)c1	< 70%
COc1cccc(C=Cc2nc(=O)c3ccccc3o2)c1OC	< 70%
CC(=O)c1c[nH]c(C(=O)OCC(=O)NCCc2ccc(C(C)C)cc2)c1	< 70%
O=C(Nc1ccc(N2CCOCC2)nc1)c1ccc(S(=O)(=O)N2CCCc3ccccc32)cc1	< 70%
O=C(Nc1cc(Cl)cc(Cl)c1)c1cc(Br)ccc1O	< 70%
Cc1cc(Cl)ccc1NC(=O)CCc1ccc(S(=O)(=O)NCC(C)C)cc1	< 70%
Cc1cc(-c2cc(C(=O)N3CCCN(C)c4nc5ccccc5nc43)c3c(C)noc3n2)c(C)s1	< 70%
CC1CN(C(=O)c2sc3ccccc3c2Cl)CC(C)O1 (stereo not given)	< 70%
Cc1cc(C(=O)Nc2ccc(Cl)cc2)c(C)n1-c1ccccc1	< 70%

SMILES	growth inhibition at single dose
O=S(=O)(c1ccc(Cl)c(N=C2NN=C(c3c[nH]c4ccccc34)CS2)c1)N1CCOCC1	< 70%
CCc1c(C)nc(-n2nc(C)cc2NC(=O)c2ccccc2SC)[nH]c1=O	< 70%
Cc1nc(C(=O)N2CCc3c(c(C(=O)NCc4ccccn4)nn3CCc3ccccc3)C2)cs1	< 70%
CCOC(=O)c1sc(N)c(C#N)c1COC(=O)c1c(CC)noc1C	< 70%
Cc1nn(C)c(C)c1NS(=O)(=O)c1c(Cl)cc(-c2ccnc(N3CCNCC3)c2)cc1Cl	< 70%
Cc1cc(NC(=O)c2ccc(Oc3ccc(Cl)cc3O)o2)no1	< 70%
CC1Cc2cc(C(=O)CSc3nnc(Cc4cccs4)n3C)ccc2N1S(C)(=O)=O (stereo not given)	< 70%
Cc1cc(C(=O)COC(=O)c2[nH]nc3ccccc23)c(C)n1Cc1cccs1	< 70%
O=C(Nc1nc2ccc(Oc3ccccc3)cc2s1)C1=COCCO1	< 70%
COc1ccc(NC(=O)C2c3ccccc3C(=O)N(CC(C)C)C2c2cccs2)cc1 (stereo not given)	< 70%
O=C(Nc1cccc([N+](=O)[O-])c1)c1[nH]nc2ccccc12	< 70%
CCCn1nc(C(=O)NCCc2ccc(-n3cccn3)cc2)c2ccccc2c1=O	< 70%
O=C(C1CCN(c2nnc(-n3cccc3)s2)CC1)N1CCC(Cc2ccccc2)CC1	< 70%
COC(=O)c1cc(OC)c(OC)cc1NS(=O)(=O)c1ccc(Cl)cc1	< 70%
Cc1cc(=O)nc(N/N=C/c2c(C)nn(-c3cccc(C(F)(F)F)c3)c2Cl)[nH]1	< 70%
CCNC(=O)C(C)NC(=O)c1cc(-c2ccccc2)nc2c1cnn2Cc1ccccc1Cl (stereo not given)	< 70%
COc1ccc(-c2cc(NC(=O)c3ccc(F)cc3Cl)ccc2OC)cc1	< 70%
CNC(=O)c1ccc(CN(Cc2ccc(SC)cc2)Cc2ccco2)cc1	< 70%
CC(C)(C)c1ccc(C(=O)Nc2cc(F)ccc2F)s1	< 70%
COc1cc2c(cc1OC)CN(C(=O)c1ccc(OCC(F)(F)F)nc1)CC2	< 70%
COc1ccc(N(CCc2cccc(C)n2)C(C)=O)cc1	< 70%
